Patent publication US9434976B2, “Modification of sample preparation to differentiate live and dead bacteria by polymerase chain reaction assay” (priority 2013, dated 2016)
Entries after “also recorded” stand apart in the source; their conditions may differ. Where two headings read alike, the source gives them in different places.

Legend:
[1] = cited from earlier work
Salmonella Typhimurium = experiment: Real time PCR of live, heat-killed or isopropyl alcohol-killed Salmonella Typhimurium after treatment with a DNA-binding chemical; assay type: cell-based; conditions: for PCR product from live versus killed Salmonella Typhimurium: Gel Red 3x stock; for Blocking of amplification of DNA from dead bacteria: dead S. typhimurium
Method: (§1) Various amounts of Gel Red™ can be added to the isolated microbe. Originally the GelRed™ is available at 10,000× solution in water or 3× staining solution in H2O (working solution). The base for the concentration calculation refers to working solution or 3×. In FIGS. 2-4 various dilutions were reported (1:1, 1:10 and 1:100). “1:1” means where 1.0 μl of commercially available Gel Red™ at 3× is diluted in 1.0 μl diluent (such as water). “1:10” means where 1.0 μl of commercially available Gel Red™ at 3× is diluted in 10.0 μl diluent (such as water). “1:100” means where 1.0 μl of commercially available Gel Red™ at 3× is diluted in 100.0 μl diluent (such as water).
(§2) Bacterial species included in these experiments were E. coli, L. monocytogens, and S. Typhimurium. Fresh culture was suspended in a buffer and placed in three tubes (live bacteria, heat-killed and isopropanol-killed bacteria). The first tube contained live bacteria without treatment, and the second and the third tube were inactivated by heat and isopropanol, respectively. The DNA-intercalating chemicals used in this experiment were PMA, EMA and other DNA-binding chemicals, which were not previously reported. The experiments were performed to study the application of sample modification with DNA-binding chemicals to enable PCR to amplify samples only from viable bacteria. […] The bacterial sample was modified with PMA or combined with high voltage light exposure to assess the combined treatment effect.
A sample containing Salmonella Typhimurium was tested. One sample included live Salmonella Typhimurium. Another sample included heat killed Salmonella Typhimurium and another sample contained isopropyl alcohol killed Salmonella Typhimurium. In FIG. 4, Compound CE stands for Gel Red™. Real time PCR was run on the samples.
In this reaction, the amplification was run using primers that targeted the ycdC gene (which encodes a putative transcriptional repressor protein).

Escherichia coli 0157:H7 = experiment: Real time PCR of live, heat-killed or isopropyl alcohol-killed E. coli after treatment with a DNA-binding chemical; assay type: cell-based; conditions: for PCR amplification product from live versus killed E. coli: Gel Red 3x stock; for Blocking of amplification of DNA from dead bacteria: dead E. coli; for Penetration into E. coli and blocking of PCR amplification: recommended concentration
Method: as §1, §2
A sample containing E. coli was tested. One sample included live E. coli. Another sample included heat killed E. coli and another sample contained isopropyl alcohol killed E. coli. In FIG. 2, Compound CE stands for Gel Red™. Real time PCR was run on the samples. […] The Gel Red™ was too highly concentrated that it penetrated all of E. coli even in the “live sample. […] The Gel Red™ was too weak to get into the intact cell membrane of the live E. coli.
In this reaction, the amplification was run using primers that targeted the per gene (which encodes perosamine synthetase).

Listeria monocytogenes = experiment: Real time PCR of live, heat-killed or isopropyl alcohol-killed L. monocytogenes after treatment with a DNA-binding chemical; assay type: cell-based; conditions: for PCR product from live versus killed L. monocytogenes: Gel Red 3x stock; for Blocking of amplification of DNA from dead bacteria: dead L. monocytogens
Method: as §1, §2
A sample containing L. monocytogenes was tested. One sample included live L. monocytogenes. Another sample included heat killed L. monocytogenes and another sample contained isopropyl alcohol killed L. monocytogenes. In FIG. 3, Compound CE stands for Gel Red™. Real time PCR was run on the samples.
In this reaction, the amplification was run using primers that targeted the Hly 9125 gene (which encodes listeriolysin O protein).

[2] = cited from earlier work; remark: listed apart in the source
bacterial sample = experiment: PMA sample modification combined with high voltage light exposure, PCR; assay type: cell-based
Text: as §2

[3] = concentrations well above the working concentrations used in gel staining

Nc1ccc2c(c1)c(-c1ccccc1)[n+](CCCCCC(=O)NCCCOCCOCCOCCCNC(=O)CCCCC[n+]1c(-c3ccccc3)c3cc(N)ccc3c3ccc(N)cc31)c1cc(N)ccc21.[I-].[I-] [Gel Red™, 5, 5′-(6, 22-dioxo-11, 14, 17-trioxa-7, 21-diazaheptacosane-1, 27-diyl)bis(3,8-diamino-6-phenylphenanthridin-5-ium) iodide]
Stability under normal light ([1]; Table 1, normal light): light (photostable).
Stability ([1]; Table 1): stable
Stability ([1]; general statement): extremely stable
PCR product from live versus killed Salmonella Typhimurium (Salmonella Typhimurium; dilution 1:1): no PCR products
PCR product from live versus killed Salmonella Typhimurium (Salmonella Typhimurium; dilution 1:10): no PCR products
PCR product from live versus killed Salmonella Typhimurium (Salmonella Typhimurium; dilution 1:100): signal from live but not from killed samples
PCR amplification product from live versus killed E. coli (Escherichia coli 0157:H7; dilution 1:1): no PCR products even in the sample containing the live bacteria
PCR amplification product from live versus killed E. coli (Escherichia coli 0157:H7; dilution 1:10): signal from live but not from killed samples
PCR amplification product from live versus killed E. coli (Escherichia coli 0157:H7; dilution 1:100): amplification products in all samples, including the killed bacteria samples
PCR product from live versus killed L. monocytogenes (Listeria monocytogenes; dilution 1:1): no PCR products
PCR product from live versus killed L. monocytogenes (Listeria monocytogenes; dilution 1:10): signal from live but not from killed samples
PCR product from live versus killed L. monocytogenes (Listeria monocytogenes; dilution 1:100): signal from live but not from killed samples
Cytotoxicity (Description) ([2]; Table 1): noncytotoxic.
Cytotoxicity [2, 3]: noncytotoxic
Hazard [2, 3]: nonhazardous
Mutagenicity [2, 3]: nonmutagenic

ethidium monoazide bromide [EMA]
Solubility ([1]; Table 1): Soluble in DMF or EtOH.
Blocking of amplification of DNA from dead bacteria (Salmonella Typhimurium): can block the amplification of DNA from dead bacteria
Blocking of amplification of DNA from dead bacteria (Escherichia coli 0157:H7): can block the amplification of DNA from dead bacteria
Penetration into E. coli and blocking of PCR amplification (Escherichia coli 0157:H7): penetrates only live E. coli
Blocking of amplification of DNA from dead bacteria (Listeria monocytogenes): can block the amplification of DNA from dead bacteria
Harmfulness ([2]; Table 1): Potentially harmful

CC[N+](C)(CC)CCC[n+]1c(-c2ccccc2)c2cc(N=[N+]=[N-])ccc2c2ccc(N)cc21 [PMA, propidium monoazide]
Blocking of amplification of DNA from dead bacteria (Salmonella Typhimurium): completely blocks the amplification of DNA from dead; also recorded: can block the amplification of DNA from dead bacteria
Blocking of amplification of DNA from dead bacteria (Escherichia coli 0157:H7): completely blocks the amplification of DNA from dead; also recorded: can block the amplification of DNA from dead bacteria
Penetration into E. coli and blocking of PCR amplification (Escherichia coli 0157:H7): penetrates only live E. coli
Blocking of amplification of DNA from dead bacteria (Listeria monocytogenes): completely blocks the amplification of DNA from dead; also recorded: can block the amplification of DNA from dead bacteria
Effect of PMA combined with light exposure compared with PMA only (bacterial sample): not much different from using only PMA
Cytotoxicity (Description) ([2]; Table 1): substantially lower
